The values below come from patent US20250197420A1, “MACROCYCLIC COMPOUNDS, COMPOSITIONS, AND METHODS OF USING THEREOF” (Sionna Therapeutics Inc., priority 2022, published 2025).

Molecules are shown by their SMILES.

This experiment concerns the target T1, Purified recombinant NBD1 (Homo sapiens, UniProt P13569).
T1 construct: Purified recombinant NBD1 was produced using previously described methods; made in house
Briefly: Aggregation analysis using differential static light scattering (DSLS): thermal stability of NBD1. Conditions: NBD1 0.2 mg/ml; Tagg of compound well minus average Tagg of DMSO control wells. In kind it is binding. The protocol:
Purified recombinant NBD1 was produced using previously described methods (A. Schmidt, J. L. Mendoza, P. J. Thomas (2011) Biochemical and Biophysical Approaches to Probe CFTR Structure (365-376) M. D. Amaral, K. Kunzelmann (eds.), Cystic Fibrosis, Methods in Molecular Biology 741, Springer Science+Business Media). The effect of test compounds on thermal stability of NBD1 was evaluated by differential static light scattering (DSLS) using the Harbinger Stargazer-384 instrument (Epiphyte Three, Toronto, Canada). Test compounds were dissolved and diluted to desired concentrations in 100% DMSO. The compounds or DMSO controls (100 nL) were stamped into wells of a […] low volume optical plate (Corning Inc., Corning, NY) using the Echo 555 acoustic liquid handler (Labcyte Inc., San Jose, CA).
NBD1 protein was diluted to 0.2 mg/ml in S200 buffer (50 mM Tris-HCl, 150 mM NaCl, 5 mM MgCl2, 2 mM ATP, 2 mM DTT, pH7.6) containing 1% glycerol. 10 uL of protein solution was aliquoted into the 384-well plate harboring the test compounds and 10 uL mineral oil was overlaid onto the protein solution, using the epMotion robotic liquid handler (Eppendorf North America, Hauppauge, NY). After placing into the Stargazer instrument, the plate was heated at 1° C. per minute to 70° C. Images were captured from 25° C. to 70° C. every 0.5° C. At the end of the experiment run, instrument software integrated image files and analyzed data automatically. A […] regression curve was generated for each well, representing the increase in light scattering over time. A temperature of aggregation (Tagg) was calculated based on the inflection point of the curve. To better compare data across experiments the average Tagg for DMSO control wells was calculated and subtracted from values for wells containing compounds to obtain a “ΔTagg” value. These ΔTagg values reflect stabilizing efficacy of the compounds. As set forth in Table 2 below, an ΔTagg value less than or equal to 5° C. is marked “A”; a value above 5° C. and less than or equal to 10° C. is marked “B”; a value greater than 10° C. and less than or equal to 25° C. is marked “C”.

T1 sequence (P13569 423-646 limits assumed): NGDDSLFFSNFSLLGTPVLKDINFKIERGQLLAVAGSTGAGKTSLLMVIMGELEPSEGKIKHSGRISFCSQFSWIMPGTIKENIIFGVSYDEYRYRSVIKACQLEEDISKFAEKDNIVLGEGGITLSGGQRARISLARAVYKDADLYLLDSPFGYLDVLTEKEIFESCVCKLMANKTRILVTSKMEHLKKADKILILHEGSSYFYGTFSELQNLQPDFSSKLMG

On to `CC1(c2cccc(CCC(=O)O)c2)CCCCC(=O)NCCc2c(c(F)cc3[nH]ccc23)Oc2ccc(F)c(c2)-c2ncc1[nH]2` (centres unmarked) [Compound 16, 3-[3-(22,28-Difluoro-6-methyl-11-oxo-24-oxa-3,12,19,30-tetrazapentacyclo[23.3.1.12,5.015,23.016,20]triaconta-1(29),2,4,15,17,20,22,25,27-nonaen-6-yl)phenyl]propanoic acid], for which the “DSLS (ΔTagg)” value was “C (a value greater than 10 °C and less than or equal to 25 °C is marked “C”)”.
Turning to `CC1(c2cccc(CCC(=O)O)c2)CCCC(=O)NCCCc2c(c(F)cc3[nH]ccc23)Oc2ccc(F)c(c2)-c2ncc1[nH]2` (centres unmarked) [Compound 17, 3-[3-(22,28-Difluoro-6-methyl-10-oxo-24-oxa-3,11,19,30-tetrazapentacyclo[23.3.1.12,5.015,23.016,20]triaconta-1(29),2,4,15,17,20,22,25,27-nonaen-6-yl)phenyl]propanoic acid], the “DSLS (ΔTagg)” value is “C (a value greater than 10 °C and less than or equal to 25 °C is marked “C”)”.
As for `CN1CCCCCC(C)(c2cccc(CCC(=O)O)c2)c2cnc([nH]2)-c2cc(ccc2F)Oc2c(F)cc3[nH]ccc3c2CC(C)(C)C1=O` (centres unmarked) [Compound 18, 3-[3-(23,29-Difluoro-6,12,14,14-tetramethyl-13-oxo-25-oxa-3,12,20,31-tetrazapentacyclo[24.3.1.12,5.016,24.017,21]hentriaconta-1(30),2,4,16,18,21,23,26,28-nonaen-6-yl)phenyl]propanoic acid], the “DSLS (ΔTagg)” value is “A (an ΔTagg value less than or equal to 5 °C is marked “A”)”.
Turning to `CN1CCOCC(C)(c2cccc(CCC(=O)O)c2)c2cnc([nH]2)-c2cc(ccc2F)Oc2c(F)cc3[nH]ccc3c2CCC1=O` (centres unmarked) [Compound 19, 3-[3-(22,28-Difluoro-6,11-dimethyl-12-oxo-8,24-dioxa-3,11,19,30-tetrazapentacyclo[23.3.1.12,5.015,23.016,20]triaconta-1(29),2,4,15,17,20,22,25,27-nonaen-6-yl)phenyl]propanoic acid], the “DSLS (ΔTagg)” value is “C (a value greater than 10 °C and less than or equal to 25 °C is marked “C”)”.
For `CC(CC(=O)O)c1cccc(C2CCCCCN(C)C(=O)CCc3c(c(F)cc4[nH]ccc34)Oc3ccc(F)c(c3)-c3ncc2[nH]3)c1` (centres unmarked) [Compound 21, 3-[3-(23,29-Difluoro-12-methyl-13-oxo-25-oxa-3,12,20,31-tetrazapentacyclo[24.3.1.12,5.016,24.017,21]hentriaconta-1(30),2,4,16,18,21,23,26,28-nonaen-6-yl)phenyl]butanoic acid], the “DSLS (ΔTagg)” value is “C (a value greater than 10 °C and less than or equal to 25 °C is marked “C”)”.
Then `CC(Cc1cccc(C2CCCCCN(C)C(=O)CCc3c(c(F)cc4[nH]ccc34)Oc3ccc(F)c(c3)-c3ncc2[nH]3)c1)C(=O)O` (centres unmarked) [Compound 22, 3-[3-(23,29-Difluoro-12-methyl-13-oxo-25-oxa-3,12,20,31-tetrazapentacyclo[24.3.1.12,5.016,24.017,21]hentriaconta-1(30),2,4,16,18,21,23,26,28-nonaen-6-yl)phenyl]-2-methyl-propanoic acid], with “C (a value greater than 10 °C and less than or equal to 25 °C is marked “C”)”.
As to `CC1CNC(=O)CCc2c(c(F)cc3[nH]ccc23)Oc2ccc(F)c(c2)-c2ncc([nH]2)C(C)(c2cccc(CCC(=O)O)c2)COC1` (centres unmarked) [Compound 23, 3-[3-(23,29-Difluoro-6,10-dimethyl-13-oxo-8,25-dioxa-3,12,20,31-tetrazapentacyclo[24.3.1.12,5.016,24.017,21]hentriaconta-1(30),2,4,16,18,21,23,26,28-nonaen-6-yl)phenyl]propanoic acid], the “DSLS (ΔTagg)” value was “C (a value greater than 10 °C and less than or equal to 25 °C is marked “C”)”.
Then `CC1(c2cccc(CCC(=O)O)c2)CCC(=O)NCCCCc2c(c(F)cc3[nH]ccc23)Oc2ccc(F)c(c2)-c2ncc1[nH]2` (centres unmarked) [Compound 24, 3-[3-(22,28-Difluoro-6-methyl-9-oxo-24-oxa-3,10,19,30-tetrazapentacyclo[23.3.1.12,5.015,23.016,20]triaconta-1(29),2,4,15,17,20,22,25,27-nonaen-6-yl)phenyl]propanoic acid], with “C (a value greater than 10 °C and less than or equal to 25 °C is marked “C”)”.
In the case of `CC1(c2ccccc2)CCC(=O)NCCCCc2c(c(F)cc3[nH]ccc23)Oc2ccc(F)c(c2)-c2ncc1[nH]2` (centres unmarked) [Compound 25, 22,28-Difluoro-6-methyl-6-phenyl-24-oxa-3,10,19,30-tetrazapentacyclo[23.3.1.12,5.015,23.016,20]triaconta-1(29),2,4,15,17,20,22,25,27-nonaen-9-one], the “DSLS (ΔTagg)” value is “B (a value above 5 °C and less than or equal to 10 °C is marked “B”)”.
Turning to `CC1(C)CCC(c2cccc(CCC(=O)O)c2F)c2cnc([nH]2)-c2cc(ccc2F)Oc2c(F)cc3[nH]ccc3c2CCC(=O)NC1` (centres unmarked) [Compound 32, 3-[3-(22,28-Difluoro-9,9-dimethyl-12-oxo-24-oxa-3,11,19,30-tetrazapentacyclo[23.3.1.12,5.015,23.016,20]triaconta-1(29),2,4,15,17,20,22,25,27-nonaen-6-yl)-2-fluoro-phenyl]propanoic acid], the “DSLS (ΔTagg)” value is “B (a value above 5 °C and less than or equal to 10 °C is marked “B”)”.
Then `[2H]C([2H])([2H])n1nc2nc1-c1cc(ccc1F)Oc1c(F)cc3[nH]ccc3c1CCC(=O)N(C)CC(C)(C)CCCC2(C)c1cccc(CCCO)c1` (centres unmarked) [Compound 78, 23,29-difluoro-6-[3-(3-hydroxypropyl)phenyl]-6,10,10,12-tetramethyl-3-(trideuteriomethyl)-25-oxa-3,4,12,20,31-pentazapentacyclo-[24.3.1.12,5.016,24.017,21]hentriaconta-1(30),2(31),4,16,18,21,23,26,28-nonaen-13-one], with “A (an ΔTagg value less than or equal to 5 °C is marked “A”)”.
Then `O=C(O)CCc1cccc(C2CCCCOC(=O)NCCc3c(c(F)cc4[nH]ccc34)Oc3ccc(F)c(c3)-c3ncc2[nH]3)c1F` (centres unmarked) [Compound 81, 3-[3-(23,29-Difluoro-12-oxo-11,25-dioxa-3,13,20,31-tetrazapentacyclo[24.3.1.12,5.016,24.017,21]hentriaconta-1(30),2,4,16(24),17(21),18,22,26,28-nonaen-6-yl)-2-fluoro-phenyl]propanoic acid], with “C (a value greater than 10 °C and less than or equal to 25 °C is marked “C”)”.
As to `O=C1NCCc2c(c(F)cc3[nH]ccc23)Oc2ccc(F)c(c2)-c2ncc([nH]2)C(c2ccccc2F)CCCCO1` (centres unmarked) [Compound 82, 23,29-Difluoro-6-(2-fluorophenyl)-11,25-dioxa-3,13,20,31-tetrazapentacyclo[24.3.1.12,5.016,24.017,21]hentriaconta-1(30),2,4,16(24),17(21),18,22,26,28-nonaen-12-one], the “DSLS (ΔTagg)” value is “A (an ΔTagg value less than or equal to 5 °C is marked “A”)”.
Turning to `CN1CC(O)CCCC(C)(c2cccc(CCC(=O)O)c2)c2cnc([nH]2)-c2cc(ccc2F)Oc2c(F)cc3[nH]ccc3c2CCC1=O` (centres unmarked) [Compound 104, 3-[3-(23,29-Difluoro-10-hydroxy-6,12-dimethyl-13-oxo-25-oxa-3,12,20,31-tetrazapentacyclo[24.3.1.12,5.016,24.017,21]hentriaconta-1(30),2,4,16,18,21,23,26,28-nonaen-6-yl)phenyl]propanoic acid], the “DSLS (ΔTagg)” value is “C (a value greater than 10 °C and less than or equal to 25 °C is marked “C”)”.
